# Earlier results, collected in patent US8188084B2, “Pyridinone and pyridazinone derivatives as inhibitors of poly (ADP-ribose) polymerase (PARP)” (Istituto di Ricerche di Biologia Molecolare P. Angeletti …, priority 2006, dated 2012).
# Tested on: ischemia and reperfusion of the heart or skeletal muscle
# Conditions: rabbits
Compound,"reductions in infarct size in the heart (single injection 10 mg/kg, one minute before occlusion or one minute before reperfusion)",reduced infarct size (single injection 1 mg/kg)
NC(=O)c1cccc(N)c1 [3-amino-benzamide],32-42%,–
"Oc1cccc2c(O)nccc12 [1,5-dihydroxyisoquinoline]",–,38-48%
